Several values for one entry are separate records, joined by “and”; a condition that tells them apart may be missing. Identical values can stand only once. Like-named read-outs stand apart in the source and are kept apart here.
Experiments:
[1] = system: rats with monocrotaline induced pulmonary arterial hypertension; assay: Monocrotaline rat model for treatment of pulmonary arterial hypertension, dosing Day 14 till Day 28 (Example 2); format: in vivo, Male Sprague-Dawley rats; conditions: for inhibition at 100 mg/kg / inhibition at 30 mg/kg: Rattus norvegicus, po; for inhibition at 100 mg/kg / % Inhibition of Fulton index : Hypertrophy (RV/LV + S) / inhibition at 30 mg/kg: positive control = 0.00; for Fulton index: Hypertrophy (RV/LV + S), Mean / Right Ventricle weight, Mean / Right Ventricular Pressure (RVP), Mean / Right Ventricular Systolic Pressure (RVSP), Mean / Right ventricle/Body weight, Mean: group mean; for Fulton index: Hypertrophy (RV/LV + S), Mean / Right Ventricle weight, Mean / Right Ventricular Pressure (RVP), Mean / Right Ventricular Systolic Pressure (RVSP), Mean / Right ventricle/Body weight, Mean / Fulton index: Hypertrophy (RV/LV + S) / Right Ventricle weight / Right Ventricular Pressure (RVP) / Right Ventricular Systolic Pressure (RVSP) / Right ventricle/Body weight: Day 28; for Fulton index: Hypertrophy (RV/LV + S) / Right Ventricle weight / Right Ventricular Pressure (RVP) / Right Ventricular Systolic Pressure (RVSP) / Right ventricle/Body weight: individual animals
Description: The studies were conducted for hemodynamic evaluation of Temozolomide in anesthetized Sprague Dawley rats treated with monocrotaline (“MCT”) to induce pulmonary arterial hypertension. Sildenafil was used as an internal control to compare the effects of temozolomide
The effects of temozolomide were evaluated in rats with monocrotaline induced pulmonary arterial hypertension using sildenafil as standard care treatment. Male Sprague-Dawley rats were orally administered vehicle, temozolomide (30 mg/kg, given once daily every day starting on Day 14 till Day 28), or sildenafil (100 mg/kg, given once daily every day starting on Day 14 till Day 28) (n=12 in each group). Rats received a single injection of monocrotaline (50 mg/kg, s.c.) on Study Day 1. On the twenty-eighth day following monocrotaline dosing, the rats were anesthetized with ketamine/xylazine for terminal monitoring of pulmonary and systemic arterial pressures along with heart rate.
Test Item: Vehicle (0.5% Methylcellulose+0.2% Tween 80 in deionized water, temozolomide (30 mg/kg given once daily starting on Day 14 till Day 28; Sildenafil (100 mg/kg, administered once daily starting on Day 14 till Day 28)
(§1) Route of Administration: Oral
Study Design: The study was planned and conducted according to design depicted below in Table 7
Pulmonary arterial hypertension was induced by injecting 50 mg/kg dose of monocrotaline (3 mL/Kg MCT in 50% DMSO in water) subcutaneously to all the randomized Male Sprague-Dawley rats of Groups VII, VIII, IX, and X (except negative control group). Negative control group (Group VI, DMSO group) received a single dose of 3 mL/kg 50% DMSO in water for injection subcutaneously. Male Sprague-Dawley rats in groups VII, VIII, IX, and X were administered 50 mg/kg of body weight of monocrotaline in DMSO subcutaneously to induce PAH on day 1. The rats of vehicle positive control group (Group VIII) received 5 ml of vehicle every morning. The rats of the temozolomide group (Group IX) were orally administered Temozolomide (30 mg/kg given once daily starting on Day 14 till Day 28) and rats of sildenafil group (Group X) were orally administered sildenafil (100 mg/kg given once daily starting on Day 14 till Day 28). On the twenty-eighth day after monocrotaline dosing, the rats were anesthetized with ketamine/xylazine for terminal monitoring of pulmonary and systemic arterial pressures along with heart rate. It is understood that from day 1 till administration of test compounds i.e till day 14, rates of all groups were suffering from PAH due to administration of MCT. Thus the study was conducted to evaluate the efficacy of Temozolomide treatment for PAH. Sildenafil was used as an internal control to compare the effects of Temozolomide.

[2] = system: rats with monocrotaline induced pulmonary arterial hypertension; assay: Monocrotaline rat model for pulmonary arterial hypertension, dosing from Day 1 for 28 days (Example 1); format: in vivo, Male Sprague-Dawley rats; conditions: for Fulton index: Hypertrophy (RV/LV + S), Mean / RV/Body wt, Mean / Right Ventricular Pressure (RVP), Mean / Right Ventricular Systolic Pressure (RVSP), Mean / Right ventricle (RV), Mean: group mean; for Fulton index: Hypertrophy (RV/LV + S), Mean / RV/Body wt, Mean / Right Ventricular Pressure (RVP), Mean / Right Ventricular Systolic Pressure (RVSP), Mean / Right ventricle (RV), Mean / Fulton index: Hypertrophy (RV/LV + S) / RV/Body wt / Right Ventricular Pressure (RVP) / Right ventricle (RV) / Right Ventricular Systolic Pressure (RVSP): Day 28; for Fulton index: Hypertrophy (RV/LV + S) / RV/Body wt / Right Ventricular Pressure (RVP) / Right ventricle (RV) / Right Ventricular Systolic Pressure (RVSP): individual animals; for Right Ventricular Systolic Pressure (RVSP): MCT 50 mg/kg s.c.
Description: The studies were conducted for hemodynamic evaluation of temozolomide in anesthetized sprague dawley rats treated with monocrotaline (“MCT”) to induce pulmonary arterial hypertension. Sildenafil was used as an internal control to compare the effects of temozolomide.
The effects of temozolomide were evaluated in rats with monocrotaline induced pulmonary arterial hypertension using sildenafil as standard care treatment. Male Sprague-Dawley rats were orally administered vehicle, temozolomide (10 mg/kg given once daily every day for 28 days starting on Day 1), or sildenafil (100 mg/kg, administered once daily every day for 28 days starting on Day 1) (n=12 in each group). Rats received a single injection of monocrotaline (50 mg/kg, s.c.) on Study Day 1. On the twenty-eighth day following monocrotaline dosing, the rats were anesthetized with ketamine/xylazine for terminal monitoring of pulmonary and systemic arterial pressures along with heart rate.
Test Item: Vehicle (0.5% Methylcellulose+0.2% Tween 80 in deionized water, Temozolomide (10 mg/kg given once daily for 28 days; Sildenafil (100 mg/kg administered once daily)
as §1
Study Design: The study was planned and conducted according to design depicted below in Table 1
Pulmonary arterial hypertension was induced by injecting monocrotaline (3 mL/Kg MCT in 50% DMSO in water) subcutaneously at a dose of 50 mg/kg of body weight to all the randomized Male Sprague-Dawley rats of Groups II, III,IV and V (except negative control group). Negative control group (Group I, DMSO group) received a single dose of 3 mL/kg 50% DMSO in water for injection subcutaneously. The positive control group (Group III) received 5 ml of vehicle every morning. The rats of temozolomide group (Group IV) were orally administered temozolomide (10 mg/kg given once daily for 28 days starting on Day 1) and rats of sildenafil group (Group V) were orally administered sildenafil (100 mg/kg given once daily for 28 days starting on Day 1) On the twenty-eighth day after monocrotaline dosing, the rats were anesthetized with ketamine/xylazine for terminal monitoring of pulmonary and systemic arterial pressures along with heart rate.

[3] = cited from earlier work
[4] = Sildenafil 100 mg/Kg p.o. QD Day 14 till Day 28
[5] = Sildenafil 100 mg/Kg p.o. QD 28 days from Day 1
[6] = Temozolomide 30 mg/Kg p.o. QD Day 14 till Day 28
[7] = Temozolomide 10 mg/Kg p.o. QD 28 days from Day 1
[8] = administered after a modified high-fat breakfast

CCCc1nn(C)c2c(=O)[nH]c(-c3cc(S(=O)(=O)N4CCN(C)CC4)ccc3OCC)nc12 [Sildenafil]
inhibition at 100 mg/kg ([1]; Sildenafil 100 mg/Kg p.o. QD Day 14 till Day 28, read-out: % Inhibition of Right Ventricular Pressure (RVP)): 58.3%
inhibition at 100 mg/kg ([1]; Sildenafil 100 mg/Kg p.o. QD Day 14 till Day 28, read-out: % Inhibition of Right Ventricular Systolic Pressure (RVSP)): 55.1%
% Inhibition of Fulton index : Hypertrophy (RV/LV + S) [1, 4]: 30.70%
Fulton index: Hypertrophy (RV/LV + S), Mean [1, 4]: 0.384
Right Ventricle weight, Mean [1, 4]: 0.286 gms
Right Ventricular Pressure (RVP), Mean [1, 4]: 14.302 mmHg
Right Ventricular Systolic Pressure (RVSP), Mean [1, 4]: 30.803 mmHg
Right ventricle/Body weight, Mean [1, 4]: 0.0008
Fulton index: Hypertrophy (RV/LV + S) [1, 4]: 0.464 and 0.393 and 0.306 and 0.337 and 0.389 and 0.415
Right Ventricle weight [1, 4]: 0.309 gms and 0.220 gms and 0.259 gms and 0.256 gms and 0.308 gms and 0.363 gms
Right Ventricular Pressure (RVP) [1, 4]: 10.916 mmHg and 11.268 mmHg and 17.424 mmHg and 11.506 mmHg and 16.211 mmHg and 18.486 mmHg
Right Ventricular Systolic Pressure (RVSP) [1, 4]: 22.951 mmHg and 27.908 mmHg and 33.917 mmHg and 23.264 mmHg and 40.201 mmHg and 36.579 mmHg
Right ventricle/Body weight [1, 4]: 0.0009 (2×) and 0.0006 and 0.0007 (2×) and 0.0012
Fulton index: Hypertrophy (RV/LV + S), Mean [2, 5]: 0.312
RV/Body wt, Mean [2, 5]: 0.0006
Right Ventricular Pressure (RVP), Mean [2, 5]: 13.929 mmHg
Right Ventricular Systolic Pressure (RVSP), Mean [2, 5]: 29.648 mmHg
Right ventricle (RV), Mean [2, 5]: 0.247 g
Fulton index: Hypertrophy (RV/LV + S) [2, 5]: 0.367 and 0.297 and 0.323 and 0.312 and 0.352 and 0.309 and 0.330 and 0.167 and 0.354
RV/Body wt [2, 5]: 0.0009 and 0.0006 (4×) and 0.0007 (3×) and 0.0003
Right Ventricular Pressure (RVP) [2, 5]: 11.481 mmHg and 15.226 mmHg and 11.673 mmHg and 14.427 mmHg and 14.139 mmHg and 16.310 mmHg and 12.947 mmHg and 12.352 mmHg and 16.804 mmHg
Right ventricle (RV) [2, 5]: 0.440 g and 0.228 g and 0.207 g and 0.232 g and 0.308 g and 0.229 g and 0.261 g and 0.083 g and 0.236 g
Right Ventricular Systolic Pressure (RVSP) [2, 5]: 23.627 mmHg and 31.322 mmHg and 24.486 mmHg and 29.450 mmHg and 31.316 mmHg and 32.922 mmHg and 34.262 mmHg and 25.579 mmHg and 33.864 mmHg

Cn1nnc2c(C(N)=O)ncn2c1=O [Temozolomide]
inhibition at 30 mg/kg ([1]; Temozolomide 30 mg/Kg p.o. QD Day 14 till Day 28, read-out: % Inhibition of Right Ventricular Pressure (RVP)): 53.9%
inhibition at 30 mg/kg ([1]; Temozolomide 30 mg/Kg p.o. QD Day 14 till Day 28, read-out: % Inhibition of Right Ventricular Systolic Pressure (RVSP)): 44.8%
% Inhibition of Fulton index : Hypertrophy (RV/LV + S) [1, 6]: 19.83%
activity in treatment of PAH ([1]; Temozolomide 30 mg/kg vs Sildenafil 100 mg/kg): comparable among with Sildenafil activity
systolic and mean pulmonary arterial pressures compared to the vehicle group ([1]; after 28 days, 30 mg/kg/QD/day, Day 14 till Day 28): differences in systolic and mean pulmonary arterial pressures
Fulton index: Hypertrophy (RV/LV + S), Mean [1, 6]: 0.444
Right Ventricle weight, Mean [1, 6]: 0.274 gms
Right Ventricular Pressure (RVP), Mean [1, 6]: 15.802 mmHg
Right Ventricular Systolic Pressure (RVSP), Mean [1, 6]: 37.936 mmHg
Right ventricle/Body weight, Mean [1, 6]: 0.0009
Fulton index: Hypertrophy (RV/LV + S) [1, 6]: 0.502 and 0.480 and 0.481 (2×) and 0.382 and 0.357 and 0.485 and 0.506 and 0.341 and 0.427
Right Ventricle weight [1, 6]: 0.311 gms and 0.286 gms and 0.210 gms and 0.237 gms and 0.273 gms and 0.343 gms and 0.232 gms and 0.245 gms and 0.283 gms and 0.318 gms
Right Ventricular Pressure (RVP) [1, 6]: 15.151 mmHg and 19.476 mmHg and 14.308 mmHg and 12.295 mmHg and 15.993 mmHg and 21.577 mmHg and 22.479 mmHg and 12.349 mmHg and 12.363 mmHg and 12.035 mmHg
Right ventricle/Body weight [1, 6]: 0.0011 (3×) and 0.0010 and 0.0008 (3×) and 0.0007 and 0.0009 (2×)
Right Ventricular Systolic Pressure (RVSP) ([1]; Temozolomide 30 mg/Kg p.o. QD Day 14 till Day 28, MCT 50 mg/kg s.c. Day 1): 39.693 mmHg and 42.429 mmHg and 31.561 mmHg and 36.888 mmHg and 37.763 mmHg and 48.504 mmHg and 45.392 mmHg and 33.928 mmHg and 29.989 mmHg and 33.218 mmHg
activity in controlling or reducing PAH ([2]; Temozolomide 10 mg/kg vs Sildenafil 100 mg/kg): comparable among with Sildenafil activity
systolic and mean pulmonary arterial pressures compared to the vehicle group ([2]; after 28 days, 10 mg/kg/QD/day): differences in systolic and mean pulmonary arterial pressures
Fulton index: Hypertrophy (RV/LV + S), Mean [2, 7]: 0.342
RV/Body wt, Mean [2, 7]: 0.0007
Right Ventricular Pressure (RVP), Mean [2, 7]: 15.548 mmHg
Right Ventricular Systolic Pressure (RVSP), Mean [2, 7]: 33.732 mmHg
Right ventricle (RV), Mean [2, 7]: 0.227 g
Fulton index: Hypertrophy (RV/LV + S) [2, 7]: 0.325 and 0.333 and 0.450 and 0.294 and 0.406 and 0.287 and 0.277 and 0.255 and 0.519 and 0.345 and 0.273
RV/Body wt [2, 7]: 0.0006 (3×) and 0.0008 (2×) and 0.0005 (4×) and 0.0011 and 0.0007
Right Ventricular Pressure (RVP) [2, 7]: 11.178 mmHg and 15.927 mmHg and 16.493 mmHg and 19.994 mmHg and 15.532 mmHg and 12.593 mmHg and 16.840 mmHg and 17.431 mmHg and 16.896 mmHg and 16.462 mmHg and 11.679 mmHg
Right ventricle (RV) [2, 7]: 0.244 g and 0.220 g (2×) and 0.298 g and 0.202 g and 0.268 g and 0.218 g and 0.197 g and 0.167 g and 0.311 g and 0.156 g
Right Ventricular Systolic Pressure (RVSP) [2, 7]: 29.626 mmHg and 33.857 mmHg and 35.059 mmHg and 38.531 mmHg and 30.456 mmHg and 30.333 mmHg and 36.128 mmHg and 35.368 mmHg and 40.220 mmHg and 33.582 mmHg and 27.895 mmHg
AUC decrease [3, 8]: 9%
Mean peak plasma concentration decrease [3, 8]: 32%
median Tmax [3, 8]: 2.25 h
median Tmax increase [3, 8]: 2 fold
absorption ([3]; oral administration): rapidly and completely absorbed

Source: US10709715B2, “Method of treating hypertension” (Cipla Limited, priority 2017, dated 2020)
